# Assays:
# db/db mice [1] = assay: Single-dose pharmacodynamic study on db/db mice (Example 5); assay type: in vivo; details: single s.c. 100 μg/kg
# Protocol: The title compounds of Examples 1-4 and Comparative Examples 1-4 (also known as GLP-1 derivatives) were tested in a single dose study on an obese mouse model (db/db mice) with type 2 diabetes (T2DM). The hypoglycemic drug effect of the GLP-1 derivatives was tested at a dose of 100 μg/kg.
# (§1) Male db/db (BKS/Lepr) mice aged 8-9 weeks were housed in appropriately sized feeding cages in a barrier environment and had free access to standard food and purified water, with environmental conditions controlled at 40%-60% relative humidity (RH) and 22-24° C. After an adaptation period of 1-2 weeks, the mice were used in the experiment.
# Before the start of the experiment on the day, the mice were evaluated for baseline blood glucose at about 9:30 a.m. and weighed. […]
# The GLP-1 derivatives were dissolved in the vehicle to an administration concentration of 20 μg/mL, and the administration volume was 5 mL/kg (i.e., 50 μL/10 g body weight). […] The tail of each mouse was cleaned with an alcohol cotton ball, and blood drops were collected from the tail using a disposable blood collection needle and measured with a glucometer and accompanying testing strips (Roche). Food intake and body weight of each mouse were measured at 24 h, 48 h and 72 h after the administration. […]
# db/db mice [2] = assay: Single-dose study of blood glucose, food and water intake on db/db mice (Example 15); assay type: in vivo; details: single s.c. 100 μg/kg
# Protocol: as §1, with “RH” for “relative humidity (RH)”
# Before the start of the experiment on the day, the mice were evaluated for baseline blood glucose at about 9:00 a.m. and weighed.
# The GLP-1 derivatives were dissolved in the vehicle to an administration concentration of 20 μg/mL, and the administration was performed once by subcutaneous injection (s.c., 50 μL/10 g body weight) at back of the neck. The compound of Example 2 was administered at about 10:00 a.m. (time 0), and the blood glucose of the mice was evaluated 1 h, 2 h, 3 h, 6 h, 12 h, 24 h, 48 h and 72 h after the administration. The tail of each mouse was cleaned with an alcohol cotton ball, and blood drops were collected from the tail using a disposable blood collection needle and measured with a glucometer (Roche) and accompanying testing strips. Meanwhile, the food intake and water intake of the mice were monitored every day.
# The dose-response curve of blood glucose versus time, the dose-response curve of food intake versus time, and the dose-response curve of water intake versus time were plotted for each single dose of GLP-1 derivative. […]
# Kkay mice = assay: Long-term pharmacodynamic study on Kkay mice (Example 17); assay type: in vivo; details: s.c. 100 and 300 μg/kg; dulaglutide 600 μg/kg; FIGS. 9a-9b
# Protocol: Before the start of the experiment on the day, the mice were evaluated for baseline blood glucose at about 9:00 a.m. and weighed. […] The vehicle contained 14 mg/mL propylene glycol, 5.5 mg/mL phenol and 1.133 mg/mL disodium hydrogen phosphate, with a pH value of 7.4.
# (time 0) at back of the neck once every 2 days for 16 consecutive times, the blood glucose of the mice was evaluated 3 h, 6 h, 1 day and 2 days after the first administration, and HbA1c was detected in an EDTA anticoagulation tube 48 h after the last administration.
# human GLP-1 receptor = target: T1, human GLP-1 receptor (Homo sapiens, UniProt P43220); assay: GLP-1 receptor binding, displacement of 125I-GLP-1, low and high HSA; details: 2% HSA versus 0.005% HSA
# T1 construct: host or cells: cell membrane preparation
# T1 sequence (P43220 24-463): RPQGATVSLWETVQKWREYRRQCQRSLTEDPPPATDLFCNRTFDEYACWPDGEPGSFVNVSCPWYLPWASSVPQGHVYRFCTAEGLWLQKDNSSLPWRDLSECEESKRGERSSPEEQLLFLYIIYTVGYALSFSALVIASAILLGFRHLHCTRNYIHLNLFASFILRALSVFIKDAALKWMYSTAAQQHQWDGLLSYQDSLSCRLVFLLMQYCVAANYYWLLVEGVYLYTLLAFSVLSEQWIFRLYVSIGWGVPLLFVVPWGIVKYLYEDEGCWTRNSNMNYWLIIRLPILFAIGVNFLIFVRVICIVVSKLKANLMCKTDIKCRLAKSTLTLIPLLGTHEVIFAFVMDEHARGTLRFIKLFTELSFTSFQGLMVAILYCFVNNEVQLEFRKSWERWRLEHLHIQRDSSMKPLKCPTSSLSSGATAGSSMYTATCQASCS
# Protocol: For a receptor binding test in the presence of low-concentration HSA (0.005% (w/v)), 50 μL of assay buffer was added to each well of the assay plate. For a receptor binding test in the presence of high-concentration HSA (2% (w/v)), 50 μL of 8% (w/v) albumin stock solution was added to each well of the assay plate. […] In the presence of 0.005% HSA, all test compounds and the reference control were diluted to 2 μM with assay buffer, and then all samples were diluted in 4-fold serial gradient dilutions for a total of 10 concentration gradients. […] 25 μL of test compounds or reference control at different concentrations were added to the appropriate wells of the assay plate, respectively. Cell membrane protein aliquots were thawed and diluted to their working concentration (40 μg/mL), and 50 μL of the cell membrane-containing solution was added to each well of the assay plate. […] The assay plate was incubated at room temperature for 1 h. After the incubation, the reaction solution was collected on a GF/C filter plate using a cell collector, washed 6 times with a washing buffer, and dried in a drying oven at 50° C. for 1 h. 50 μL of scintillation solution was added and blocked, and the values were read using Microbeta2. IC50 values were calculated by the nonlinear regression analysis in the GraphPad Prism software and reported in nM. […]
Substance,effective duration of action of hypoglycemic effect on db/db mice compared to semaglutide (db/db mice [1]),hypoglycemic effect on db/db mice compared to semaglutide (db/db mice [1]; FIGS. 2a-2b),"control of food intake and water intake compared to semaglutide (db/db mice [2]; db/db mice, FIGS. 7c-7d)","hypoglycemic effect on db/db mice compared to semaglutide (db/db mice [2]; same dose, FIGS. 7a-7b)",hypoglycemic effect on Kkay mice compared to dulaglutide (Kkay mice),Ratio [(IC50/nM) high-concentration HSA]/[(IC50/nM) low-concentration HSA] (human GLP-1 receptor)
"N-ε^26-[2-(2-[2-(4-[19-carboxynonadecanoylamino]-4(S)-carboxybutanoylamino)ethoxy]ethoxy)acetyl][Gly8, Arg34]GLP-1-(7-37) Peptide [Compound 2]",longer than that of semaglutide,superior hypoglycemic effect to semaglutide,its effect is superior to semaglutide,superior hypoglycemic effect,significantly superior hypoglycemic effect on Kkay mice to dulaglutide,
semaglutide,,,,,,813

# — patent publication US12703731B2, “Long-acting GLP-1 compound” (Gan & Lee Pharmaceuticals Co., Ltd., priority 2019, dated 2026)
